Data on 4 compounds can be found in paper PMC8688338 (Molecular microbiology, 2021).

In data set [1] the test system is T. vaginalis nucleoside transporters, Thymidine (LA). Kind of data set: Low affinity thymidine transport. It is filed as cell-based, Trichomonas vaginalis. Conditions: 1 µM [3H]-thymidine; single experiment, Fig. 3E.
Data set [2] relates to low affinity pyrimidine nucleobase transporter of T. vaginalis. Kind of data set: [3H]-uracil transport in T. vaginalis trophozoites. Conditions: uridine, thymidine up to 10 mM; adenosine, inosine up to 1 mM. In kind it is cell-based, Trichomonas vaginalis.
The next data set has as its target TvagENT3 (Trichomonas vaginalis, UniProt A2E5Q3). The experiment in a line: [3H]-cytidine uptake by T. brucei TbAT1-KO cells expressing TvagENT3.
Data set [3] has as its system T. vaginalis nucleoside transporters, Adenosine (HA). Kind of data set: High affinity [3H]-adenosine transport in T. vaginalis trophozoites. In kind it is cell-based, Trichomonas vaginalis.
Data set [4] addresses T. vaginalis nucleoside transporters, Guanosine (HA). Kind of data set: [3H]-guanosine transport in T. vaginalis trophozoites. In kind it is cell-based, Trichomonas vaginalis. Conditions: read-out: Ki,app; inhibition of [3H]-guanosine transport; monophasic sigmoid curve; average and SEM.
The target in data set [5] is T. vaginalis nucleoside transporters, Inosine (LA). The experiment in a line: Low affinity [3H]-inosine transport in T. vaginalis trophozoites. It is filed as cell-based, Trichomonas vaginalis. To be noted: read-out: Ki,app, inhibition of 1 µM [3H]-inosine uptake, average and SEM.
In data set [6] the test system is T. vaginalis nucleoside transporters, Adenosine (LA). Kind of data set: Low affinity adenosine transport. It is filed as cell-based, Trichomonas vaginalis. To be noted: for Km: read-out: Km,app.
Data set [7] deals with T. vaginalis nucleoside transporters, Cytidine (HA). The experiment in a line: High affinity [3H]-cytidine transport in T. vaginalis trophozoites. To be noted: read-out: Ki,app, inhibition of […] [3H]-cytidine transport, 30 s, average and SEM. In kind it is cell-based, Trichomonas vaginalis.
Data set [8] addresses T. vaginalis nucleoside transporters, Cytidine (LA). The experiment in a line: Low affinity cytidine transport in T. vaginalis trophozoites. It is filed as cell-based, Trichomonas vaginalis. Conditions: read-out: Ki,app; inhibition of Cytidine (LA) transport; average and SEM.
In data set [9] the test system is T. vaginalis nucleoside transporters. To be noted: ref Harris et al., 1988; cited from earlier work.
Data set [10] concerns the target T. vaginalis nucleoside transporters, Uridine (HA). The experiment in a line: [3H]-uridine transport in T. vaginalis trophozoites. In kind it is cell-based, Trichomonas vaginalis. Conditions: read-out: Ki,app; inhibition of 0.5 µM [3H]-uridine transport, 30 s; average and SEM.
A further data set addresses TvagENT6 (Trichomonas vaginalis, UniProt A2EMT5). The experiment in a line: cell-based.
In data set [11] the test system is T. vaginalis adenine transporter. The experiment in a line: [3H]-adenine transport in T. vaginalis trophozoites. In kind it is cell-based, Trichomonas vaginalis.
Data set [12] deals with T. vaginalis trophozoites. Kind of data set: [3H]-guanine transport in T. vaginalis trophozoites. To be noted: 2 µM [3H]-guanine. In kind it is cell-based, Trichomonas vaginalis.
Data set [13] relates to T. vaginalis nucleoside transporters, Thymidine (HA). The experiment in a line: Higher affinity [3H]-thymidine transport. In kind it is cell-based, Trichomonas vaginalis. Conditions: 125 nM [3H]-thymidine, nucleobase at 1 mM.
The test system of data set [14] is T. vaginalis trophozoites. To be noted: 1 µM [3H]-hypoxanthine over 300 s, with or without 1 mM unlabelled hypoxanthine.
Data set [15] relates to O=c1ccn([C@@H]2O[C@H](CO)[C@@H](O)[C@H]2O)c(=O)[nH]1. The experiment in a line: cells, lysate or membranes. Conditions: other: single experiment, Fig. 11D inset.

Values joined by “and” are separate entries in the source; they are usually repeats but may differ in a detail not shown here. Equal entries are not always repeated. Where two headings read alike, the source gives them in different places.

Broadly, the EC50 is the concentration at which the effect is half-maximal. Read a low EC50 as higher potency in that assay. What is called Hill slope is a measure of the steepness of the concentration-response curve. In general, Km refers to the substrate concentration at which the rate is half of its maximum. Turning to `Nc1ncnc2c1ncn2[C@@H]1O[C@H](CO)[C@@H](O)[C@H]1O` [adenosine], the EC50 in [1] is 89.8 µM; in data set [6] (inhibition of 20 µM [3H]-adenosine transport, single experiment, Fig. 4), 60.5 µM; in data set [11], 85.9 µM. For the same compound, the “inhibition of uracil transport” value in data set [2] is given as “unable to inhibit”. Besides, the Hill slope on TvagENT3 is −1.04 ± 0.07; at TvagENT3 (single experiment, Fig. 10D-F) it was −1.1. In addition, the “inhibition of cytidine uptake” value at TvagENT3 (0.5 µM [3H]-cytidine, inhibitor at 400 µM) was “completely”. For the same compound, the “rate of transport in the presence of unlabelled permeant” value in data set [3] (0.25 µM [3H]-adenosine + 1 mM unlabelled adenosine) is reported as 0.0091 ± 0.0085 pmol(10^7 cells)^−1s^−1. For the same compound, the inhibition of uptake in data set [3] (0.25 µM [3H]-adenosine by 1 mM unlabelled adenosine) is listed as > 99%. Further, the rate of transport in data set [3] (0.25 µM [3H]-adenosine, over 60 s, uninhibited) is 1.15 pmol(10^7 cells)^−1s^−1 and 1.15 ± 0.06 pmol(10^7 cells)^−1s^−1. For the same compound, the Vmax is 9.5 ± 2.4 pmol(10^7 cells)^−1s^−1 in [3] (Adenosine (HA), average and SEM); 31 ± 2 pmol(10^7 cells)^−1s^−1 in data set [6] (Adenosine (LA), average and SEM). Besides, the Michaelis constant (Km) in [3] (read-out: Km,app, Adenosine (HA), […] [3H]-adenosine, 30 s, average and SEM) is 6.2 ± 0.6 µM; in data set [6] (Adenosine (LA), 20 µM [3H]-adenosine, average and SEM), 59.4 ± 6.1 µM; in [6] (Adenosine (LA), 20 µM [3H]-adenosine, average and SEM, listed as Adenosine), 59 ± 6 µM; in data set [6] (single experiment, Fig. 4A inset), 63.5 µM; in [9], 3.9 µM. Moreover, the Ki in [4] amounted to 4.1 ± 0.9 µM; in data set [5] it was 6.36 ± 1.69 µM; in [5] (listed as Adenosine), 6.4 ± 1.7 µM; in data set [7], 2.18 ± 0.29 µM; in data set [7] (listed as Adenosine), 2.2 ± 0.3 µM; in data set [8], 357 ± 32 µM. Besides, the Ki in data set [10] was 8.16 ± 0.59 µM; at TvagENT6 it was 47.2 ± 6.4 µM; in data set [11] (read-out: Ki,app, inhibition of 50 nM [3H]-adenine transport) it was 155 ± 48 µM.
For `Nc1nc2nc[nH]c2c(=O)[nH]1` [guanine], the rate of uptake in [12] was 0.017 ± 0.002 pmol(10^7 cells)^−1s^−1 and 0.0167 ± 0.0020 pmol(10^7 cells)^−1s^−1.
As for `O=c1[nH]cnc2nc[nH]c12` [hypoxanthine], the Ki is 185 ± 37 µM in [3] (read-out: Ki,app, inhibition of […] [3H]-adenosine transport, 30 s, monophasic, average and SEM); > 1000 µM in data set [6] (read-out: Ki,app, inhibition of 20 µM [3H]-adenosine transport, average and SEM). The inhibition of transport in data set [13] is recorded as ≤ 50%; in data set [6] (20 µM [3H]-adenosine, highest tested concentration: guanosine 250 µM, adenine 1 mM, hypoxanthine 1 mM, uracil 10 mM), ≤ 50%. The specific uptake result in [14] is given as “no specific uptake”.
As to TvagENT6 (Trichomonas vaginalis G3), the Michaelis-Menten constant (Km) in data set [15] is on record as 125.4 µM.
